Data: patent US11147798B2, “Use of carbamate compound for prevention, alleviation, or treatment of demyelinating disease” (SK BIOPHARMACEUTICALS CO., LTD., priority 2016, dated 2021)
Several values for one entry are separate records, joined by “and”; a condition that tells them apart may be missing. Equal entries are not always repeated.

Legend:
[1] = system: Experimental Autoimmune Encephalomyelitis (EAE) model; assay: Pattern retinal conduction (pERG) amplitude in the EAE model; format: in vivo, female C57BL/6 mice; details: for Pattern retinal conduction amplitude (pERG amplitude), Mean ± SEM: measured 28 days after induction
Experimental: (§1) For this experiment, female C57BL/6 mice were purchased from Janvier Labs of France and were maintained under conditions of temperature (22±1° C.), a light-and-darkness cycle of 12 hours and free access to water and food according to the protocol approved and investigated by the Animal Experiment Committee of Finland. All animals were kept isolated for a week after purchase and had time to adapt to the kennel. 11-week-old animals were used in the experiment. According to the criteria of the Animal Experiment Committee of Finland, in the case of a weight loss of 20% or more compared to the starting point, a degree of disease progression (clinical score) of 4 or more, or a failure in the righting reflex test in clinical score of 3, the experiment was stopped and animals were sacrificed for humanitarian purposes.
(§2) To induce EAE, an inoculum was purchased from Hooke Laboratories of the United States: the inoculum contains 100 μg of MOG35-55 peptide and 200 μg of heat-inactivated Mycobacterium tuberculosis, both dissolved in 100 μl of mineral oil. 100 μl of the inoculum was injected subcutaneously into both high and low parts of the back of mice. 100 μl pertussis toxin was injected into the peritoneum of the mice twice, two hours after inoculation and after 24 hours.
The test compound was dissolved in distilled water containing 30% polyethylene glycol 400 (PEG 400) and treated with an ultrasonic sonicator for 30 minutes. […]
Pattern retinal conduction was measured two days before and 28 days after EAE induction. […] After performing the test, the results were analyzed using Matlab software (MathWorks, Natick, Mass.).
(§3) Quantitative data were graphed (plotted) and analyzed using Prism software version 7 (GraphPad Software Inc. La Jolla, Calif.), the data were expressed as mean±standard deviation or standard error of mean. Comparisons with the vehicle group were analyzed using a t-test, and when the significance (p value) was less than 0.05, it was judged as a statistically significant difference.

retinal ganglion cells = assay: Number of retinal ganglion cells per unit area in retinal whole mounts (Brn3a, RBPMS staining) in the EAE model; format: in vivo, female C57BL/6 mice
Experimental: as §1, §2
The test compound was dissolved in distilled water containing 30% polyethylene glycol 400 (PEG 400) and treated with an ultrasonic sonicator for 30 minutes. The dissolved compound (20 mg/kg or 30 mg/kg) or vehicle was injected into the peritoneum once daily from the 12th day after EAE induction.
When the experiment was terminated or when the time of sacrifice for humanitarian purposes was reached, the mice were sacrificed by cardiac perfusion using a tissue fixative, and the eye and optic nerve were removed for further analysis.
The retinal whole mount samples were extracted from both eyes and stained with antibodies of RBPMS (RNA binding protein with multiple splicing) and Brn3a (brain-specific homeobox/POU domain protein 3A) which are retinal ganglion cell markers, followed by analyzation in a stereological manner (Stereo Investigator, MicroBrightfield, VT, USA).
as §3

[2] = system: Experimental Autoimmune Encephalomyelitis (EAE) model; assay: Systemic motor symptom alleviation (EAE clinical score) in an Experimental Autoimmune Encephalomyelitis (EAE) model; format: in vivo, male C57BL/6 mice; details: for EAE clinical score: mean±SEM
Experimental: For this experiment, male C57BL/6 mice were purchased from Orient Bio, Inc. of Korea. The mice were placed in a wire mesh cage under conditions of ambient temperature of 20 to 24° C., relative humidity of 55 to 75%, an automatically controlled light-and-darkness cycle of 12 hours and free access to feed (purchased from Agri Brands Purina Korea, Inc.) and water. The mice were housed and maintained in accordance with the Laboratory Animal Care Standards of the Institutional Animal Care and Use Committee (IACUC). After about one week of stabilization, mice weighing 18 to 23 g were used in the experiment.
To 100 mg of Mycobacterium tuberculosis H37RA (killed and desiccated; Difco, 231141, USA) which had been well triturated in mortar, was mixed 10 ml of Incomplete Freund's adjuvant (IFA; Difco, 263910, USA) to prepare 10 mg/ml of Complete Freund's adjuvant (CFA) storage solution, followed by refrigeration at 4° C. Myelin oligodendrocyte glycoprotein (MOG35-55; Peptron, Korea) was diluted with PBS (phosphate-buffered saline; Gibco, 10010, USA) to a final concentration of 2 mg/ml and stored at −20° C. (MOG35-55 storage solution).
50 μg of PTX (pertussis toxin, PTX; Sigma, P7208, USA) was dissolved in 500 μl of PBS to prepare 100 μg/ml of pertussis toxin (PTX) storage solution, followed by […] at 4° C. In the experiment, the PTX storage solution was diluted 50 times with PBS and used.
On the first day of the experiment (Day-1), the EAE-inducing sample solution was administered to mice by subcutaneous injection at 200 μl per mouse. On the same day (Day-1) and two days later (Day-3), 200 μl of PTX solution was intraperitoneally administered to mice twice.
The EAE clinical score is as follows.
All data were expressed as mean±SEM. The EAE clinical scores in the group treated with the test compound were compared to those in the negative control vehicle group by date. Statistical analysis was performed using GraphPad Prism (ver. 4.0) program, and the differences between the two groups were analyzed by Student's t-test.

Question: What does the source list for NC(=O)O[C@@H](Cn1ncnn1)c1ccccc1Cl [Test compound]?
Answer: Pattern retinal conduction amplitude (pERG amplitude), Mean ± SEM ([1]; 20 mg/kg i.p. once daily from 12th day after EAE induction): 7.803; Pattern retinal conduction amplitude compared to the baseline ([1]; 20 mg/kg or 30 mg/kg, baseline measured two days before EAE induction): no significant difference; Pattern retinal conduction amplitude (pERG amplitude), Mean ± SEM ([1]; 30 mg/kg i.p. once daily from 12th day after EAE induction): 7.378; Number of retinal ganglion cells per unit area, Brn3a (individual values) (retinal ganglion cells; 20 mg/kg i.p. once daily from 12th day after EAE induction, Brn3a marker): 2675 and 1751 and 1443 and 2139 and 720 and 2221 and 1859 and 2489 and 1674 and 2035 and 2328 and 1389 and 1919; Number of retinal ganglion cells per unit area, Brn3a, Mean ± SEM (retinal ganglion cells; 20 mg/kg i.p. once daily from 12th day after EAE induction, Brn3a marker, **p < 0.01 vs. vehicle): 1895; Number of retinal ganglion cells per unit area, RBPMS (individual values) (retinal ganglion cells; 20 mg/kg i.p. once daily from 12th day after EAE induction, RBPMS marker): 3005 and 2251 and 1778 and 2976 and 1781 and 2297 and 2479.9735 and 2722 and 2362 and 2485.7761 and 2784.6808 and 2292 and 2567; Number of retinal ganglion cells per unit area, RBPMS, Mean ± SEM (retinal ganglion cells; 20 mg/kg i.p. once daily from 12th day after EAE induction, RBPMS marker, **p < 0.01 vs. vehicle): 2445; Number of retinal ganglion cells per unit area compared to the vehicle group (retinal ganglion cells; 20 mg/kg, EAE-induced animals): larger number of retinal ganglion cells per unit area; EAE clinical score ([2]; Day-1~Day-9 (before dosing)): 0.0 ± 0.0; EAE clinical score ([2]; Day-10 (before dosing)): 0.5 ± 0.8; EAE clinical score ([2]; Day-11, 10 ml/kg orally once a day from Day-11): 0.8 ± 1.0; EAE clinical score ([2]; Day-12, 10 ml/kg orally once a day from Day-11): 1.2 ± 1.1; EAE clinical score ([2]; Day-13, 10 ml/kg orally once a day from Day-11): 1.3 ± 0.7; EAE clinical score ([2]; Day-14, 10 ml/kg orally once a day from Day-11): 2.0 ± 0.6; EAE clinical score ([2]; Day-15, 10 ml/kg orally once a day from Day-11): 1.9 ± 0.5; EAE clinical score ([2]; Day-16, 10 ml/kg orally once a day from Day-11): 1.9 ± 0.6; EAE clinical score ([2]; Day-17, 10 ml/kg orally once a day from Day-11): 2.1 ± 0.6; EAE clinical score ([2]; Day-17, 10 ml/kg orally once a day from Day-11, listed as test compound): 2.1±0.6; EAE clinical score ([2]; Day-18, 10 ml/kg orally once a day from Day-11): 1.8 ± 0.5; EAE clinical score ([2]; Day-19, 10 ml/kg orally once a day from Day-11, p < 0.05 vs. vehicle): 1.7 ± 0.6; Effect on EAE clinical symptoms compared to the vehicle group ([2]; Day-19 to Day-22, orally once a day from Day-11): significant inhibition of EAE clinical symptoms; EAE clinical score ([2]; Day-20, 10 ml/kg orally once a day from Day-11, p < 0.05 vs. vehicle): 1.4 ± 0.5; EAE clinical score ([2]; Day-21, 10 ml/kg orally once a day from Day-11, p < 0.01 vs. vehicle): 1.3 ± 0.4; EAE clinical score ([2]; Day-22, 10 ml/kg orally once a day from Day-11, p < 0.01 vs. vehicle): 1.1 ± 0.5
